According to article PMC12461339, “Benzoylselenoureas: A Novel Dual-Action Inhibitor Targeting Fungal Growth and Urease Activity in Cryptococcus neoformans” (ACS Omega, 2025):
In brackets after ≈: the same amount, converted by molar mass. Several values for one entry are separate records, joined by “and”; a condition that tells them apart may be missing. Identical values can stand only once. Like-named read-outs stand apart in the source and are kept apart here.

Columns and labels:
C. neoformans H99 [1] = experiment: Minimum fungicidal concentration by subculturing after MIC reading; assay type: cell-based; conditions: Cryptococcus neoformans
Procedure: After MIC readings, the MFC values were determined by subculturing, at 35 °C for 48 h, of all concentrations that inhibited the fungal growth; and then MFC was defined as the lowest concentration of the compound capable of reducing ≥99% viability of the initial fungal inoculum. ,

C. neoformans H99 [2] = experiment: Broth microdilution antifungal assay (MIC) in RPMI or urea medium; assay type: cell-based; conditions: Cryptococcus neoformans
Procedure: (§1) C. neoformans H99 (or ATCC 208821), a standard strain, was used to evaluate the antifungal activity of BSU1-BSU11 and BTU1-BTU11 compounds using the broth microdilution method. The assay was performed in two different culture media: the standard medium RPMI 1640 buffered with […] (RMPI), and the Christensen broth (urea medium: 1 g/L peptone, 1 g/L dextrose, 5 g/L sodium chloride, 2 g/L potassium phosphate, 20 g/L urea, 12 mg/L phenol red, pH 7.0). The compounds were dissolved in dimethyl sulfoxide (DMSO) and diluted in both media, obtaining final concentrations from 0.03 to 128 mg/L in a 96-well plate and final DMSO concentration below 0.5%, considered nontoxic. For assay, yeasts were distributed in each well to obtain a final inoculum of 0.5–2.5 × 10^3 CFU/mL, and the plate was incubated at 35 °C for 48 h.
(§2) The MIC values were determined in both media and were defined as the lowest concentrations of BSU1-BSU11 and BTU1-BTU11 that inhibited 50% of fungal growth visually compared with untreated yeasts (growth control). In addition, the urease activity was indicated by medium color change from orange to pink due to ammonia production and the MICure was defined as the lowest concentration that inhibited the urease activity by visual inspection in urea medium with no color changes. For both assays, two controls were included: untreated yeast group for observation of fungal growth pattern or intracellular urease activity, and wells containing only medium for assay sterility control.

yeast urease activity = biological target: T1, yeast urease activity (Cryptococcus neoformans, UniProt O13465); experiment: Inhibition of yeast urease activity in urea (Christensen) medium, colour change (MICure); assay type: cell-based
T1 construct: endogenous in cells; host or cells: Cryptococcus neoformans H99 (ATCC 208821) yeasts in Christensen urea broth
T1 sequence (O13465 whole entry): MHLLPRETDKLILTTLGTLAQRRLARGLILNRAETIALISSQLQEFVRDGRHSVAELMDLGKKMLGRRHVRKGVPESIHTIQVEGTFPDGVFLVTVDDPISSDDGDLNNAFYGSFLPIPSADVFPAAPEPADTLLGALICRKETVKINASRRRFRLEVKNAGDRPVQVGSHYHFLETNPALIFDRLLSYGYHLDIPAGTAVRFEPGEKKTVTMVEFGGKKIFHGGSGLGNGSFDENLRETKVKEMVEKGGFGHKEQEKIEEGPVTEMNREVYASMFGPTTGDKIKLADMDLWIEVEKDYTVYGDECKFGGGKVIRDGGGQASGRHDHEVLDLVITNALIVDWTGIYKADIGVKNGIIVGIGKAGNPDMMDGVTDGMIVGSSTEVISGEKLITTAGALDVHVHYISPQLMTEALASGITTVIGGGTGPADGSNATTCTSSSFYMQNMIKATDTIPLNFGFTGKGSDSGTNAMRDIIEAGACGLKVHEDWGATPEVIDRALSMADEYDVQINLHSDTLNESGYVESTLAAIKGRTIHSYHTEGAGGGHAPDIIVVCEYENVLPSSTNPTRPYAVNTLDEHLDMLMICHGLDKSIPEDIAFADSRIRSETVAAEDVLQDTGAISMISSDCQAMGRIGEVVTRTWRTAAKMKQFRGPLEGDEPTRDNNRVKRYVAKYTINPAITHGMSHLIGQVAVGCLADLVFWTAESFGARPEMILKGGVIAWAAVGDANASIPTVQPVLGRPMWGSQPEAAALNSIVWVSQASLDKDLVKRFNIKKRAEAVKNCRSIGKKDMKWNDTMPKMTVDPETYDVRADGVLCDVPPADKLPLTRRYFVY
Procedure: The inhibitory activity against yeast urease was assessed using Christensen’s medium, which contains urea to induce URE1 gene expression. […] Even in the presence of fungal growth, inhibition of urease activity was evidenced by the absence of medium color change, indicating suppressed ammonia production.
as §1, §2

C. neoformans urease = biological target: T2, C. neoformans urease (Cryptococcus neoformans, UniProt O13465); experiment: Urease activity in crude protein extract, indophenol method; assay type: biochemical; conditions: ureIC50, BSU series
T2 construct: endogenous in cells; host or cells: Cryptococcus neoformans H99, lysed by sonication; dialysed and lyophilised soluble fraction (total protein)
T2 sequence (O13465 whole entry): as above
Procedure: C. neoformans H99 yeasts were cultivated in 100 mL of Christensen broth for 72 h at 35 °C by shaking at 200 rpm for the obtention of urease as previously described. Briefly, the yeasts were ruptured using a lysis buffer (40 mM Tris-HCl, 20 mM dithiothreitol, 4% Triton X-100, 1 mM ethylenediaminetetraacetic acid, 2 mM phenylmethylsulfonyl fluoride, protease inhibitor cocktail) and an ultrasonic sonicator. After centrifugation, the soluble fraction was dialyzed in a dialysis membrane submerged in 10 mM sodium phosphate buffer, pH 7.0; the sample was lyophilized and stored at −20 °C. Before the assay, the sample was resuspended in 1 mL of sodium phosphate buffer (10 mM, pH 7.0), and the total protein was quantified by the Bradford method.
The urease activity was determined by the indophenol method. In a 96-well microplate, 10 μL of 100 mM urea was added to 45 μL of total protein and 45 μL of BSU1-BSU11 (concentrations of 0.06–1000 μg/L) in phosphate buffer. The reaction was maintained for 10 min under shaking at 600 rpm, at room temperature. Then, 45 μL of solution A (1% phenol; 0.005% sodium nitroprusside) and 70 μL of solution B (0.5% sodium hydroxide; 0.1% sodium hypochlorite) were immediately added to the wells in the dark and incubated for 5 min at 50 °C under shaking at 600 rpm. Urease activity was quantified by measuring absorbance at 670 nm. The inhibitory concentration capable of inhibiting 50% of urease activity (ureIC50) was determined by nonlinear regression calculation using the GraphPad Prism 5.0 software.

[3] = H99, BTU series, after assay in RPMI medium, read-out: MFC
[4] = H99, Table S1, RPMI medium line, read-out: MFC
[5] = H99, Table S1, urea medium line, read-out: MFC
[6] = H99, BTU series, 50% inhibition of fungal growth, RPMI medium, read-out: MIC RPMI
[7] = H99, BTU series, 50% inhibition of fungal growth, urea medium, read-out: MIC urea
[8] = H99, Table S1, RPMI medium, C. neoformans H99, read-out: MIC
[9] = H99, Table S1, urea medium, C. neoformans H99, read-out: MIC
[10] = BTU series, 100% inhibition of yeast urease activity in urea medium
[11] = Table S1, urea medium, 100% inhibition of yeast urease activity
[12] = H99, BSU series, after assay in RPMI medium, ≥99% reduction of viability
[13] = H99, Table S1, RPMI medium line
[14] = H99, Table S1, urea medium line
[15] = H99, 48 h, read-out: MIC RPMI, BSU series, 50% inhibition of fungal growth, RPMI medium, 35 °C, 48 h
[16] = H99, 48 h, read-out: MIC urea, BSU series, 50% inhibition of fungal growth, urea medium, 35 °C, 48 h
[17] = H99, Table S1, RPMI medium, C. neoformans H99
[18] = H99, Table S1, urea medium, C. neoformans H99
[19] = BSU series, 100% inhibition of yeast urease activity in urea medium

In the case of `O=C(NC(=S)Nc1ccc(Br)cc1)c1ccccc1` [BTU8], the MFC (C. neoformans H99 [1]; [3]) is reported as over 128 µg/mL, the MFC (C. neoformans H99 [1]; [4]) is reported as over 128 µg/mL and the MFC (C. neoformans H99 [1]; [5]) is reported as over 128 µg/mL. It also gave an MIC (C. neoformans H99 [2]; [6]) of over 128 µg/mL, an MIC (C. neoformans H99 [2]; [7]) of 32 µg/mL (≈ 95.5 µM) and an MIC (C. neoformans H99 [2]; [8]) of over 128 µg/mL. It also gave an MIC (C. neoformans H99 [2]; [9]) of 64 µg/mL (≈ 191 µM), an MICURE (yeast urease activity; [10]) of under 0.25 mg/L and an MICURE (yeast urease activity; [11]) of 32 mg/L.

Compound `O=C(NC(=[Se])Nc1cccc(Cl)c1)c1ccccc1` [BSU7] has an MFC (C. neoformans H99 [1]; [12]) of 16 µg/mL (≈ 47.4 µM), an MFC (C. neoformans H99 [1]; [13]) of 4 µg/mL (≈ 11.8 µM) and an MFC (C. neoformans H99 [1]; [14]) of 0.25 µg/mL (≈ 0.74 µM). The MIC (C. neoformans H99 [2]; [15]) was 8 µg/mL (≈ 23.7 µM), the MIC (C. neoformans H99 [2]; [16]) was 0.25 µg/mL (≈ 0.74 µM) and the MIC (C. neoformans H99 [2]; [17]) was 4 µg/mL (≈ 11.8 µM). For the same compound, the MIC (C. neoformans H99 [2]; [18]) was 0.12 µg/mL (≈ 0.355 µM), the MICURE (yeast urease activity; [19]) was 0.12 mg/L and the MICURE (yeast urease activity; [11]) was 0.06 mg/L. The IC50 (C. neoformans urease) was 7.59 nM and 7.58 nM.

Compound `O=C(NC(=S)Nc1cccc(Cl)c1)c1ccccc1` [BTU7] has an MFC (C. neoformans H99 [1]; [3]) of over 128 µg/mL, an MFC (C. neoformans H99 [1]; [4]) of over 128 µg/mL and an MFC (C. neoformans H99 [1]; [5]) of 64 µg/mL (≈ 220 µM). It also gave an MIC (C. neoformans H99 [2]; [6]) of over 128 µg/mL, an MIC (C. neoformans H99 [2]; [7]) of 4 µg/mL (≈ 13.8 µM) and an MIC (C. neoformans H99 [2]; [8]) of over 128 µg/mL. The MIC (C. neoformans H99 [2]; [9]) was 32 µg/mL (≈ 110 µM), the MICURE (yeast urease activity; [10]) was under 0.25 mg/L and the MICURE (yeast urease activity; [11]) was 2 mg/L.

With `COc1cccc(NC(=[Se])NC(=O)c2ccccc2)c1` [BSU5] the MFC (C. neoformans H99 [1]; [12]) was 1 µg/mL (≈ 3 µM), the MFC (C. neoformans H99 [1]; [13]) was 16 µg/mL (≈ 48 µM) and the MFC (C. neoformans H99 [1]; [14]) was 0.25 µg/mL (≈ 0.75 µM). The MIC (C. neoformans H99 [2]; [15]) was 1 µg/mL (≈ 3 µM), the MIC (C. neoformans H99 [2]; [16]) was 0.12 µg/mL (≈ 0.36 µM) and the MIC (C. neoformans H99 [2]; [17]) was 8 µg/mL (≈ 24 µM). The MIC (C. neoformans H99 [2]; [18]) was 0.25 µg/mL (≈ 0.75 µM), the MICURE (yeast urease activity; [19]) was 0.12 mg/L and the MICURE (yeast urease activity; [11]) was 0.12 mg/L. The IC50 (C. neoformans urease) was 14 nM.

Work on `O=C(NC(=S)Nc1cccc([N+](=O)[O-])c1)c1ccccc1` [BTU11] yielded an MFC (C. neoformans H99 [1]; H99, BTU series, after assay in RPMI medium) of over 128 µg/mL, an MFC (C. neoformans H99 [1]; [13]) of over 128 µg/mL and an MFC (C. neoformans H99 [1]; [14]) of over 128 µg/mL. It also gave an MIC (C. neoformans H99 [2]; [17]) of over 128 µg/mL, an MIC (C. neoformans H99 [2]; [18]) of over 128 µg/mL and an MIC (C. neoformans H99 [2]; H99, read-out: MIC RPMI, BTU series, 50% inhibition of fungal growth, RPMI medium) of over 128 µg/mL. For the same compound, the MIC (C. neoformans H99 [2]; H99, read-out: MIC urea, BTU series, 50% inhibition of fungal growth, urea medium) was over 128 µg/mL, the MICURE (yeast urease activity; [10]) was over 128 mg/L and the MICURE (yeast urease activity; [11]) was over 128 mg/L.

In the case of `Cc1ccc(NC(=[Se])NC(=O)c2ccccc2)cc1` [BSU2], the MFC (C. neoformans H99 [1]; [12]) is reported as 16 µg/mL (≈ 50.4 µM), the MFC (C. neoformans H99 [1]; [13]) is reported as 16 µg/mL (≈ 50.4 µM) and the MFC (C. neoformans H99 [1]; [14]) is reported as 1 µg/mL (≈ 3.15 µM). It also gave an MIC (C. neoformans H99 [2]; [15]) of 16 µg/mL (≈ 50.4 µM), an MIC (C. neoformans H99 [2]; [16]) of 0.5 µg/mL (≈ 1.58 µM) and an MIC (C. neoformans H99 [2]; [17]) of 16 µg/mL (≈ 50.4 µM). It also gave an MIC (C. neoformans H99 [2]; [18]) of 0.5 µg/mL (≈ 1.58 µM), an MICURE (yeast urease activity; [19]) of 0.5 mg/L and an MICURE (yeast urease activity; [11]) of 0.5 mg/L. For the same compound, the IC50 (C. neoformans urease) was 1.07 nM.

`COc1ccccc1NC(=S)NC(=O)c1ccccc1` [BTU4] showed an MFC (C. neoformans H99 [1]; [3]) of over 128 µg/mL, an MFC (C. neoformans H99 [1]; [4]) of over 128 µg/mL and an MFC (C. neoformans H99 [1]; [5]) of over 128 µg/mL. It also gave an MIC (C. neoformans H99 [2]; [6]) of over 128 µg/mL, an MIC (C. neoformans H99 [2]; [7]) of 64 µg/mL (≈ 223 µM) and an MIC (C. neoformans H99 [2]; [8]) of over 128 µg/mL. For the same compound, the MIC (C. neoformans H99 [2]; [9]) was 1 µg/mL (≈ 3.49 µM), the MICURE (yeast urease activity; [10]) was 32 mg/L and the MICURE (yeast urease activity; [11]) was at most 0.25 mg/L.

Work on `O=C(NC(=[Se])Nc1cccc([N+](=O)[O-])c1)c1ccccc1` [BSU11] yielded an MFC (C. neoformans H99 [1]; [12]) of 64 µg/mL (≈ 184 µM), an MFC (C. neoformans H99 [1]; [13]) of over 16 µg/mL and an MFC (C. neoformans H99 [1]; [14]) of 1 µg/mL (≈ 2.87 µM). For the same compound, the MIC (C. neoformans H99 [2]; [15]) was 32 µg/mL (≈ 91.9 µM), the MIC (C. neoformans H99 [2]; [16]) was 1 µg/mL (≈ 2.87 µM) and the MIC (C. neoformans H99 [2]; [17]) was 16 µg/mL (≈ 45.9 µM). The MIC (C. neoformans H99 [2]; [18]) was 1 µg/mL (≈ 2.87 µM), the MICURE (yeast urease activity; [19]) was 1 mg/L and the MICURE (yeast urease activity; [11]) was 1 mg/L. For the same compound, the IC50 (C. neoformans urease) was 7.91 nM and 7.93 nM.

Work on `O=C(NC(=[Se])Nc1ccccc1[N+](=O)[O-])c1ccccc1` [BSU10] yielded an MFC (C. neoformans H99 [1]; [12]) of 16 µg/mL (≈ 45.9 µM), an MFC (C. neoformans H99 [1]; [13]) of 16 µg/mL (≈ 45.9 µM) and an MFC (C. neoformans H99 [1]; [14]) of 2 µg/mL (≈ 5.74 µM). For the same compound, the MIC (C. neoformans H99 [2]; [15]) was 8 µg/mL (≈ 23 µM), the MIC (C. neoformans H99 [2]; [16]) was 1 µg/mL (≈ 2.87 µM) and the MIC (C. neoformans H99 [2]; [17]) was 8 µg/mL (≈ 23 µM). For the same compound, the MIC (C. neoformans H99 [2]; [18]) was 1 µg/mL (≈ 2.87 µM), the MICURE (yeast urease activity; [19]) was 1 mg/L and the MICURE (yeast urease activity; [11]) was 1 mg/L. The IC50 (C. neoformans urease) was 8.68 nM and 8.67 nM.
